This is an account of results in US20140161767A1, “FOLLICLE-STIMULATING HORMONE (FSH)/LYTIC DOMAIN FUSION CONSTRUCTS AND METHODS OF MAKING AND USING SAME” (BOARD OF SUPERVISORS OF LOUISIANA STATE UNIVERSITY AND …, priority 2012, published 2014).

Assay [1] relates to Panc-1. The assay is described as follows: Cell viability after 4 hours (Cell Titer Glo), Panc-1. The class given is cell-based, human. The note with it: 4 h incubation; read-out: Activities [μM] Panc1 (p18). The procedure:
(§1) Human ovarian cancer cell lines OVCAR-3 (p 41), SKOV-3 (p 35) and the human uterine sarcoma cell line MES-SA-Dx5 (p 61) (multi-drug resistant clone), the human pancreatic cancer cell line Panc-1 (passage number 18), and human triple negative breast cancer cell line MDA-MB-231 (passage number 47) were grown in ATCC recommended medium, 10% fetal bovine serum, 100 IU/ml penicillin, 100 microg/ml streptomycin. Cells were typically seeded (2,000 cells per well) into 96 well plates and media was replaced after 48 hours of incubation. […] Each Phor-18-hFSH-β81-89 conjugate provided in lyophilized form was dissolved in saline and added to cells. The duration of incubation was 4 hours at 37° C. Cell viability was assessed after 4 hours using a luminometric assays (Promega, Cell Titer Glo, G755B, lot #00000031421). Controls contained saline or 0.1% triton as reference for 0 and 100% cell death, respectively.
(§2) Data were processed and analyzed using GraphPad Prism version 5.00 for Windows, GraphPad Software, San Diego Calif. USA, www.graphpad.com”. Statistical analysis for significance was determined by a two-tailed Student's T-test. Each study was conducted to achieve an N of at least 6.
(§3) In vitro activities were expressed as IC50 values for each cell line, time point and compound tested that were calculated using the Hill equation (Graph Pad Prizm software).
Background: ATP-based viability assays read luminescence as a measure of living cells.

Assay [2] concerns SKOV-3. Kind of assay: Cell viability after 4 hours (Cell Titer Glo), SKOV-3. It counts as cell-based, human. The following applies: 4 h incubation; read-out: Activities [μM] SKOV-3 (p35). Here is the method:
as §1, §2, §3

Assay [3] deals with MES-SA-Dx5. Kind of assay: Cell viability after 4 hours (Cell Titer Glo), MES-SA-Dx5. The following applies: 4 h incubation; read-out: Activities [μM] MES-SA-Dx5 (p61). It counts as cell-based, human. The procedure:
as §1, §2, §3

Assay [4] deals with OVCAR-3. Kind of assay: Cell viability after 4 hours (Cell Titer Glo), OVCAR-3. The class given is cell-based, human. The following applies: 4 h incubation; read-out: Activities [μM] OVCAR-3 (p41). Here is the method: as §1, §2, §3
For assay [5], the system named is MDA-MB-435S.luc xenograft. Kind of assay: Mouse xenograft model of breast cancer, LHRH fusion constructs. It counts as in vivo, mice. The procedure: For LHRH fusion constructs, the mouse xenograft model for breast cancer was used. In brief, Nu/Nu female mice, outbred strain, age 5 weeks (Charles River) were injected subcutaneously with a MDA-MB-435S.luc/Matrigel suspension (1×10^6 cells). Treatment was started on day 21 after tumor cell injection and continued on day 26 and 29. The doses for weekly fusion construct injections were 2, 0.2 and 0.02 mg/kg body weight, given as a bolus single injection. All mice were necropsied 34 days after tumor cell injection—baseline values for tumor weights were obtained by sacrificing 8 mice at treatment start. Primary tumors, liver, kidney, pancreas, heart, lung, and spleen were collected and prepared for histological evaluation in formalin. Tumor weights were recorded at necropsy, part of the tumors were frozen at −80° C. for luciferase assay determination.
Characteristics of tumors at necropsy are summarized in FIG. 10: (A) tumor weight, (B) changes of tumor weights compared to baseline, (C) total number of live tumor cells, (D) changes of total live tumor cells compared to baseline, and (E) bodyweights at baseline and necropsy. Viability of tumor cells was determined at the end of the study when tumors were measured for luciferase activity. Treatment efficacy was calculated as difference between measurements at the beginning of treatment compared to the measurement at the end of study (FIGS. 10B and 10D).

In assay [6] the test system is MDA-MB-435S xenograft. Kind of assay: MDA-MB-435S xenograft, multiple dose regimen. The class given is in vivo, mice. The note with it: 0.002 and 0.2 mg/kg. Here is the method: In order to determine the minimal effective dose necessary to reduce MDA-MB-435S xenograft weights in a multiple dose regimen, Nu/Nu female mice, outbred strain, age 8 weeks (Charles River), were injected (s.c.) into the interscapular region with a MDA-MB-435S (passage #253)/Matrigel suspension (2×10^6 cells/mouse) as previously described above. […] The doses were given as a single bolus intravenous injection via lateral tail vein on days 15, 16, 17, 20, 21, 22, 23, 27, 28, 29, 30, 33, 34, 35, 36, 37, 38, 40, 41, 42 after tumor cell inoculation. Saline injections served as control groups.
Each treatment group consisted of 16 mice. During the entire study tumor volumes were recorded twice weekly. Final necropsy was conducted on day 45 after tumor cell injection. […] due to occlusion of the tail vein in most mice. At study endpoint body weight, tumor weights were determined and fixed in phosphate buffered 10% formalin.

Assay [7] relates to OVCAR-3. Kind of assay: IC50 in human cancer cell lines compared to cisplatinum: OVCAR-3. It counts as cell-based. The note with it: ovarian cancer cell line. Here is the method: MDA-MB-435S.luc cells were grown in Leibovitz's L 15 medium, 10% fetal bovine serum, 0.01 mg/ml bovine insulin, 100 IU/ml penicillin, 100 microg/ml streptomycin. The cells were cultured in tight closed flasks. The incubations were conducted using 96 well plates at 10,000 cells per well. Cells were typically seeded into 96 well plates and media was replaced after 48 hours of incubation. Each assay was conducted at increasing concentrations of 0, 0.001, 0.01, 0.05, 0.1, 0.5, 1, 2, 5, 10 and 100 micromolar doses of lytic peptide-binding domain conjugate. Each lytic peptide-binding domain conjugate provided in lyophilized form and was freshly dissolved in saline and added to cells. The duration of incubation was typically 24 h, and cell viability assays were conducted using formazan conversion assays (MTT assay). Controls contained saline or 0.1% triton as reference for 0 and 100% cell death, respectively.
To ascertain the IC50 of various fusion constructs on different human cancer cell lines compared to cisplatinum, IC50 of fusion constructs were evaluated as in Table 3.

In assay [8] the test system is MDA-MB-435S.luc cells. The assay is described as follows: Cell toxicity screening (MTT assay) in MDA-MB-435S.luc breast cancer cells. It counts as cell-based, human. An excerpt: This example describes screening for cell toxicity (IC50) and hemolytic activity using a human breast cancer cell line.
Eighteen βCG-ala and eight LHRH conjugated fusion constructs were studied and compared to Phor21-βCG-ala and unconjugated Phor21 and Phor 18 (338913)=CLIP71 peptides. The human breast cancer cell line MDA-MB-435S.luc, which over expresses chorionic gonadotrophin (CG) and luteinizing hormone-releasing hormone (LHRH) receptors, was used to screen at passage numbers 248-252. The MDA-MB-435S.luc cell line was constructed from the MDA-MB-435S cell line obtained from the American Type Cell Culture Collection by stable transfection with the plasmid PRC/CMV-luc containing the Photinus pyralis luciferase gene and an […] by lipofection. The stably transfected cell line was selected using G418 and the clones with the highest expression for the luciferase gene were tested for their LH and LHRH receptor expression.
MDA-MB-435S.luc cells were grown in Leibovitz's L 15 medium, 10% fetal bovine serum, 0.01 mg/ml bovine insulin, 100 IU/ml penicillin, 100 microg/ml streptomycin. The cells were cultured in tight closed flasks. […]
Data were processed and analyzed using Graph Pad Prizm 4™ software (Graph Pad Prizm, Inc). Statistical analysis for significance was determined by a two-tailed Student's T-test. […]
A general note: Formazan colour is commonly taken as a measure of viable cells.

KFAKFAK KFAKFAK KFAK [Phor18]: the IC50 in assay [1] is 18.9 ± 0.2 µM; in assay [2] it was 21.7 ± 3.6 µM; in assay [3], 28.1 ± 2.5 µM; in assay [4], 20.5 ± 5.1 µM.
“KFAKFAKKFAKFAKKFAKQHWSYGLRPG [Phor18-LHRH]”: in assay [5] (mouse, in vivo), the “Concentrations resulting in tumor weights similar to baseline” value turned out to be 0.2 mg/kg and the “In vivo tumor efficacy compared to reference Phor21-βCG-ala (tumor weight, viable tumor cells)” value is recorded as “Equally effective”. Also, the “Tumor volume after 30 days compared to baseline” value in assay [5] (p<0.01) was “smallest tumor volumes”. The Tumor response result in assay [6] was “tumor regression”. The “Histological examination of tumors” value in assay [6] (H&E) is listed as “eradication of tumor cells”. Also, the IC50 in assay [7] is 3 ± 0.5 µM. In addition, the “fold more potent (toxic) than Phor21-βCG-ala” value in assay [8] stood at 2 fold.
